The values below are quoted from earlier work in US9532983B2, “Benzofuran compounds, compositions, kits and/or methods thereof” (Savannah State University, priority 2013, dated 2017).

The target of the series is σ1 receptor (Homo sapiens, UniProt Q99720). The following applies: read-out: affinity for the σ1 receptor; Maurice et al.; cited from earlier work.
Sequence of σ1 receptor (Q99720 whole entry, species assumed): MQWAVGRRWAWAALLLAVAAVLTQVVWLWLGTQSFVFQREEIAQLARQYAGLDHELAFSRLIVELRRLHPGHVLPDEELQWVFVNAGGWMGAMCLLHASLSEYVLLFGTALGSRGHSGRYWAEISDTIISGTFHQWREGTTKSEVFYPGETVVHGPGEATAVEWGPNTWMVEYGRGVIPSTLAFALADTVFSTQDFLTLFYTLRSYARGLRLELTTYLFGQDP

Turning to `Cc1ccc2c(c1)[C@]13CCCC[C@@H]1[C@H](C2)N(C)CC3` [dimemorfan], the Ki was 151 nM.
